Here are results for one substance from publication PMC6669827 (Toxins, 2019).

pIC50: −log10 of the molar value. “And” between values parts separate entries of the source, which are not always exact repeats. Equal values may be shown once. “Also recorded” adds a separate entry of the source.

Assay [1] addresses T1, human α7 nAChR (Homo sapiens, UniProt P36544).
T1 construct: expressed in transfected cells; host or cells: Xenopus laevis oocytes injected with cRNA (55.8 ng per oocyte); the cDNA clone was a gift of Dr. J. Michael McIntosh, University of Utah
It is filed as cell-based.

The subject of assay [2] is human α3β2 nAChR. The class given is cell-based.

T1 sequence (P36544 23-502): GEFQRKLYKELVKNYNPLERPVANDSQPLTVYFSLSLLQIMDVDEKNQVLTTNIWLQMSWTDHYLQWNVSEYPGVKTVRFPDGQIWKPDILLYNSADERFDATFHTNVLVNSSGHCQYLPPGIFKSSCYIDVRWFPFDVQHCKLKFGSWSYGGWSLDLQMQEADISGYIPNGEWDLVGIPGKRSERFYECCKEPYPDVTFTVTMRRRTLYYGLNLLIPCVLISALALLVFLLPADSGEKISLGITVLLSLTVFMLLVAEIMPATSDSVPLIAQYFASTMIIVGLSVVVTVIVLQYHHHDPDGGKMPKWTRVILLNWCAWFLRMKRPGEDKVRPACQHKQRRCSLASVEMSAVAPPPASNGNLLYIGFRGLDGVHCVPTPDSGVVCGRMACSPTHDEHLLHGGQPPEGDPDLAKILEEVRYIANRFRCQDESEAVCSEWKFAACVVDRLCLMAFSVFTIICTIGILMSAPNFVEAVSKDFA

Take αD-PiXXA [F7-3]: in assay [1], the “reversibility of the effect of purified peptide on hα7 nAChR (in words)” value was “slowly reversible; also recorded: very slowly reversible”; the “selectivity hα7 over hα3β2 (in words)” value is “selective for hα7 nAChRs”; the “time to return to the initial activity after starting the washout, hα7 nAChR” value is 21 min and ~ 21 min. In assay [1] (read-out: half-maximal inhibitory concentration (IC50) on hα7 nAChRs), the pIC50 was 5.21. The “inhibition of the ACh-induced response on hα3β2 nAChRs by purified peptide” value in assay [2] worked out at 6.7 ± 3.1%. Besides, the “effect on hα3β2 nAChRs (in words)” value in assay [2] (6.5 μM) is on record as “did not significantly affect”.
